Results from patent publication US20110218515A1, “Methods for Treating Acute Myocardial Infarctions and Associated Disorders” (The Regents of the University of California, priority 2009, published 2011).
Values joined by “and” are separate entries in the source; they are usually repeats but may differ in a detail not shown here. Identical values can stand only once.

Tests used:
[1] = system: congestive heart failure dogs, coronary perfused left ventricular preparation; experiment: VF frequency domain analysis (dominant frequency), pacing-induced heart failure dogs; assay type: in vivo; details: CHF dogs with PFD
Excerpt: Animal Models: Twenty-four dogs weighing 25-30 Kg were divided into three groups: control (n=11), congestive heart failure (n=7), and congestive heart failure with the antifibrotic drug pirfenidone (n=6). Heart Failure (CHF) was induced in 7 dogs via four weeks of rapid ventricular pacing via a lead placed in the RV and pulse generator set to pace at 240 bpm followed by ablation of the AV node to create complete heart block, as described in Li, et al., Circulation 1999; 100:87-95. Ventricular function was monitored weekly with transthoracic echocardiography for 4 weeks. At 4 weeks, the optical mapping study was performed.
Heart Failure with Pirfenidone (PFD): Heart failure was induced in 6 dogs as described above and PFD was administered as described in Lee et al., Circulation 2006; 114; 1703-12. Oral PFD (800 mg 3 times per day; InterMune, Brisbane, Calif.) was started 2 days before the initiation of pacing and was discontinued >6 half-lives (24 hours) before the optical mapping study.
With an optical mapping system described in Wu et al., J Cardiovasc Electrophysiol 1998; 9:1336-47, optical recordings were then made from 4-cm^2 area on 3 surfaces of the preparation (epicardial, endocardial (including the papillary muscle, and transmural) by a 16×16 photodiode array (C4657 Hamamatsu, Bridgewater, N.J.) that recorded 256 simultaneous optical action potentials. During optical recordings from a preparation, contractility was blocked with 15 mM 2,3-butadione monoxime (BDM; Sigma-Aldrich)11. Plunge electrodes were placed on the recording surface around the field of view for both pacing and monitoring. Two plunge electrodes were dedicated for recording a bipolar signal for monitoring the electrical activity of the preparation. VF was initiated with either extra stimuli or with rapid burst pacing at a cycle length of 50 ms, a pulse width of 9.9 ms, and an output of 9.9 mA. Several 4-s episodes of VF were recorded on each surface in each preparation. Activation movies of the VF were then viewed, and the activation patterns were determined. After termination of VF, signals were obtained during pacing at 250 ms and isochronal maps of activation were constructed to look at conduction. Activation patterns and wave-front direction during VF were determined from raw fluorescence movies (isopotential). […] VF was defined as rapid and irregular activations on the bipolar signal used for monitoring the electrical activity of the preparation.
Signal Processing and Frequency Domain Analysis: The signals obtained from the optical mapping recordings were sampled at 2,000 Hz, and for each signal the dominant frequency (DF) was determined and the organization was calculated as described Everett, et al., IEEE Trans Biomed Eng 2001; 48:969-78. Briefly, a fast Fourier transform (FFT) was calculated on the digitally filtered waveform. The data were detrended and multiplied by a Hamming window. The largest peak of the resulting magnitude spectrum was identified, and the positions of the harmonic peaks were determined on the basis of its position. The areas under the largest peak and three of its harmonic peaks were each calculated over a 1-Hz window. This produced an area under four peaks. The total area of the spectrum was calculated from 2 Hz up to but not including the fifth harmonic peak. The ratio of the power under the harmonic peaks to the total power in this range was calculated, and the resulting number was defined as the organization index (OI). The OI was theorized to represent the organization of AF for that signal at that period in time. To calculate the variance of the DFs, spatial coefficient of variance (SD/mean) of the DFs during a single episode of AF among all recording sites and temporal coefficient of variance of average DFs from among AF episodes for each mapping field within each preparation were calculated. Discrete, stable, high frequency areas were noted. […]

[2] = system: ischemia-reperfusion rat model; experiment: Serial echocardiography in ischemia-reperfusion MI rats; assay type: in vivo, Sprague-Dawley rats; details: for LV ejection fraction at 5 weeks: 5 weeks post-MI, after four weeks feed with 1.2% pirfenidone
Description: In this example, a protocol is described for examining the ventricular function, extent of fibrosis and VT inducibility in an ischemia-reperfusion rat model after pirfenidone treatment. Ventricular function was assessed via echocardiography. VT inducibility was assessed by programmed stimulation and EP study. The electrophysiological properties were assessed using high-resolution optical mapping, and the extent of fibrosis was studied using standard histological techniques.
After baseline echocardiography, thirty male Sprague-Dawley rats, ages 6-10 weeks, underwent myocardial infarction using an ischemia-reperfusion model. Briefly, rats were anesthetized using inhaled isoflurane (5% induction, 2.5% maintenance, O2 output 1 L/min) and positioned supine on an electrically warmed animal surgery platform. Rats were intubated using a 16-gauge i.v. catheter and then ventilated using a Harvard rodent respirator. After a left thoracotomy and pericardiotomy were performed, a 7-0 Ticron suture was introduced into the myocardium, using the left atrial appendage and right outflow tract as landmarks. The depth of entry was 2 mm, which was slightly greater than the level of the left coronary artery. Both suture ends were then threaded through a PE-90 polyethylene tube 6 in. in length to form a “snare loop” around the artery, closed by pulling on the free ends of the suture. […] The suture was then tightened to occlude the artery for 20 minutes and then removed to allow for reperfusion. The chest was then closed with 5-0 prolene suture, and the animal was allowed to recover. After one week and repeat echocardiography, rats were randomized to placebo rodent feed (control group, n=15) or rodent feed mixed with 1.2% pirfenidone (PFD) (treatment group, n=15) for four weeks. All experiments and data analyses were performed with the operator blinded to treatment group.
At baseline, and at 1 wk and 5 wk after infarction, a commercially available high-resolution echocardiographic system (Vevo 660, VisualSonics, Toronto, ON, Canada) equipped with a 25-MHz mechanical transducer was used for echocardiography. Rats were placed supine on a warming platform, and ECG limb electrodes were attached. To minimize ultrasound attenuation, the chests were shaved and cleaned with a chemical hair remover (Nair). Aquasonic 100 gel (Parker Laboratories, Fairfield, N.J.) was applied to the thoracic surface to optimize visibility of the cardiac chambers. Parasternal long-axis and parasternal short-axis two-dimensional views were acquired.
Using the long-axis view, left ventricular (LV) end-systolic and end-diastolic volumes (ESV and EDV), as well as LV ejection fraction (LVEF), were calculated by using frames with the maximal and minimal cross-sectional area and width. The system software utilizes a formula based on a cylindrical-hemiellipsoid model (volume=8*area2÷3÷length). LVEF was calculated using the following formula: (EDV−ESV)/EDV*100. Fractional shortening (FS) was evaluated from the M mode of the parasternal long-axis view at the papillary muscle level on the basis of the percent changes of LV end-diastolic and end-systolic diameters. LV mass was estimated using the following equation at end diastole: LV mass=1.05*(epicardial volume−endocardial volume), where volume is based on the cylindrical-hemiellipsoid model. These evaluations of LV function in the rodent are well validated. Echocardiographic acquisition and analysis were obtained while blinded to the treatment group.

## Cc1ccc(=O)n(-c2ccccc2)c1 [pirfenidone]
[1]; CHF 6 of 7, Controls 3 of 11
  dogs with at least one surface with VF characterized by high DF areas: 3 of 6
[1]; untreated heart failure animals have a very large gradient
  gradient of frequencies over distance, transmural surface: preserved the transmural gradient to that similar to control animals
[1]; Endocardium
  DF Spatial CoV: 0.11 ± 0.04
  DF Temporal CoV: 0.07 ± 0.03
  Max DF: 10.44 ± 1.32 Hz
  Mean DF: 8.29 ± 0.68 Hz
[1]; Epicardium
  DF Spatial CoV: 0.09 ± 0.04
  DF Temporal CoV: 0.05 ± 0.01
  Max DF: 10.92 ± 0.98 Hz
  Mean DF: 9.17 ± 1.08 Hz
[1]; Transmural
  DF Spatial CoV: 0.14 ± 0.06
  DF Temporal CoV: 0.08 ± 0.02
  Max DF: 10.24 ± 1.89 Hz
  Mean DF: 7.93 ± 1.52 Hz
[2]; 1 week post-MI, at randomization before treatment
  LV ejection fraction at 1 week: 54%
[2]
  LV ejection fraction at 5 weeks: 45%
[2]; listed as PFD
  LV ejection fraction at 5 weeks: 36±15%
[2]; baseline echocardiography, before treatment
  LV ejection fraction, starting value of the decline: 66±5%
[2]; treatment period, feed with 1.2% pirfenidone, controls 24.3%, p=0.005
  percent decrease in ejection fraction from week 1 to week 5: 8.6% and 8%
